Experimental data: patent US7476670B2, “Purine derivatives, method for preparing, pharmaceutical compositions and novel use” (Aventis Pharma S.A., priority 2003, dated 2009)
pIC50: −log10 of the molar value. In brackets after ≈: the same amount, converted by molar mass.

Key:
EGF tyr Kinase = target: T1, EGF tyr Kinase (Homo sapiens, UniProt P00533); assay: Assay for inhibition of EGF tyr kinase activity; format: biochemical; conditions: [33P]ATP, read-out: percentage inhibition at 20 μM
T1 construct: purchased Tebu SE-124
Procedure: The inhibition of the kinase activity is determined by measuring the phosphorylation of its substrate peptide.
The assay is carried out in a final volume of 100 μl.
The incubation buffer is as follows:
• 5 mM Hepes/Tris pH 7.4 • 2% Glycerol • 0.2% triton X100 10 μl of the 10-times concentrated inhibitor are added to 20 μl of incubation buffer containing 1 U/μl final concentration of the enzyme (Tebu, SE-124); 30 μl of incubation buffer containing 0.43 mg/ml final concentration of peptide substrate are then added along with 20 μl of incubation buffer containing 0.4 μM of enzyme and, finally, 20 μl of 6 mM tris/HCl pH 7.4, 15 mM MgCl2 buffer containing 10 μM ATP and radiolabeled ATP, [^33P]ATP (0.25 μCi), are added. The reaction is stopped after incubation for 60 minutes at 30° C. • Results obtained expressed as percentage inhibition at 20 μM • Example 20 100% 10) Assay for Inhibition of AKT Activity

Candida albicans = assay: Minimum inhibitory concentration in liquid medium, micro method (NCCLS M27-A); format: cell-based; conditions: read-out: MIC Candida albicans
Procedure: (§1) The assay is carried out in a final volume of 40 μl; all the reagents are prepared in a buffer: • 50 mM HEPES pH 7.5 • 0.03% triton X100 • 10 mM MgCl2 • 5% Glycerol • 1 mM DTT 10 μl of the 10-times concentrated inhibitor are added to 5 μl of enzyme (75 ng final concentration), and 5 μl of peptide (1 μM final concentration), then 2.5 μl of incubation buffer containing 40 μM ATP and 2.5 μl of radiolabeled ATP, [^33P]ATP (500 nCi), are added. After incubation for 15 minutes at ambient temperature, 10 μl of incubation buffer containing 192 nM of substrate. […] Reference method for broth dilution antifungal susceptibility testing of yeasts. Approved Standard M27-A. NCCLS, Villanova, Pa.); the minimum concentration with which a visible decrease is observed in the cloudiness of the cell growth (at least 80% compared to a control without product) is the Minimum Inhibitory Concentration (MIC) of the antifungal agent with respect to the strain tested.
(§2) RPMI 1640 medium (liquid) without L-glutamine is supplemented with L-glutamine (0.3 g/l or 10.5 ml of a solution at 200 mM) and buffered with 34.54 g/l (0.165 M) of morpholinepropanesulfonic acid (MOPS). The medium is sterilized by filtration. 100 μl of RPMI medium are distributed into each well of a 96-well plate. The appropriate volume. of the antifungal solution is distributed in the first column of the microplate and supplemented with 200 μl of medium. Doubling dilutions are made so as to establish a range of 11 concentrations in each line of the microplate. The 12th well of each row will serve as a growth control. The cell suspension is prepared from a culture (liquid or agar) or from a frozen vial, and is diluted in RPMI medium so as to obtain a cell suspension at 5×10^3−2×10^4 cells/ml. 100 μl of the cell suspension are distributed in the microplate. For all species of Candida, the MIC is read after 24-48 h, and for Cryptococcus and Aspergillus after 48-72 h, of incubation at 37° C. in a normal atmosphere. The MIC is read by visual reading, determining the well which contains the lowest dose of antifungal agent which causes at least 80% inhibition of the growth of the fungus.

Candida glabrata = assay: as above; format: cell-based; conditions: Nakaseomyces glabratus, read-out: MIC Candida glabrata
Procedure: as §1, §2

Aspergillus fumigatus = assay: as above; format: cell-based; conditions: at least 80% inhibition of growth, read after 48-72 h at 37° C., RPMI 1640
Procedure: as §1, §2

FAK = FAK (Homo sapiens, UniProt Q05397); assay: Assay for inhibition of FAK activity (autophosphorylation); format: biochemical; conditions: fluorescence polarization, ATP 1 μM; read-out: IC50s expressed as micromolar
Procedure: The inhibition of the kinase activity is determined by fluorescence polarization, the autophosphorylation of FAK is detected by adding an anti-phosphoprotein antibody coupled to a fluorescent label.
The assay is carried out in a final volume of 30 μl; all the reagents are prepared in a buffer: • 50 mM HEPES pH 7.5 • 0.03% triton X100 • 10 mM MgCl2 • 5% Glycerol • 1 mM DTT 10 μl of the 10-times concentrated inhibitor are added to 5 μl of enzyme (100 ng final concentration), and 5 μl of incubation buffer and 10 μl of ATP (1 μM final concentration) are added.

CaCiv1 = CaCiv1 (Candida albicans, UniProt A0A1D8PH53); assay: Assay for inhibition of CIV-CDK (CIV1) activity; format: biochemical; conditions: CaCiv1 with Cdk2 substrate, [33P]ATP, 30 min ambient temperature; read-out: IC50 as micromolar
Source text: 1) Assay for Inhibition of CIV-CDK (CIV1) Activity
a) Preparation of the Reagents

ZAP kinase = target: T2, ZAP kinase (Homo sapiens, UniProt P43403); assay: Assay for inhibition of ZAP kinase activity; format: biochemical; conditions: fluorescence polarization, read-out: percentage inhibition at 20 μM
T2 construct: purchased Panvera P2782
T2 sequence (P43403 1-619): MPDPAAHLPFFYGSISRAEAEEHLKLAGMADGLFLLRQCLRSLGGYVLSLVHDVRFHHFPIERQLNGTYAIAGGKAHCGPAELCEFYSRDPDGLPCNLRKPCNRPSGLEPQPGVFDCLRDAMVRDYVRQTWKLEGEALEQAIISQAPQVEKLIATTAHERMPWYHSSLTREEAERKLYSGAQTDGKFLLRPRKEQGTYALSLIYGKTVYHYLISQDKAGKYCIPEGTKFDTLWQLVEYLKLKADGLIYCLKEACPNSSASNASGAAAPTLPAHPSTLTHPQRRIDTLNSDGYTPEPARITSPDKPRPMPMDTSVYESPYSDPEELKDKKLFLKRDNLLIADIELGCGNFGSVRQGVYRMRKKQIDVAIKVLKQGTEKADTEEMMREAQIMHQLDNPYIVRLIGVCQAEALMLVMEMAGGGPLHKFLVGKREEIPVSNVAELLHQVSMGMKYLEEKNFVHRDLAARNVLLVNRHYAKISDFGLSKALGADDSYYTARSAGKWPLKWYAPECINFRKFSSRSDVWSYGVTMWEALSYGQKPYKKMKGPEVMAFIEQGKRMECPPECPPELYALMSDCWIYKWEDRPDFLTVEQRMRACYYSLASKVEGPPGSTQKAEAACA
Procedure: The inhibition of the kinase activity is determined by fluorescence polarization, the ZAP kinase phosphorylates a peptide detected by adding an anti-phosphopeptide antibody coupled to a fluorescent label.
The assay is carried out in a final volume of 50 μl; all the reagents are prepared in a buffer: • 20 mM Tris/HCl pH 7.7 • 7 mM MnCl2 • 50 μM Na2VO4 5 μl of the 10-times concentrated inhibitor are added to 25 μl of enzyme (0.7 μg/ml final concentration) (Panvera ref P2782). After incubation for 5 minutes at ambient temperature, 10 μl of PolyGT (300 ng/ml final concentration) and 10 μl of ATP (0.25 μM final concentration) are added. The detection is carried out after incubation for 15 minutes at ambient temperature. • Results obtained expressed as percentage inhibition at 20 μM • Example 8 98% • Example 20 95% • Example 24 96% 7) Assay for Inhibition of Casein Kinase II Activity

SRC kinase = target: T3, SRC kinase (Homo sapiens, UniProt P12931); assay: Assay for inhibition of SRC kinase activity; format: biochemical; conditions: fluorescence polarization, read-out: percentage inhibition at 20 μM
T3 construct: purchased Upstate Biotechnology 14-117
Procedure: 2) Assay for Inhibition of SRC Kinase Activity
The inhibition is determined by fluorescence polarization, the […] kinase phosphorylates a peptide detected by adding an anti-phosphopeptide antibody coupled to a fluorescent label.
The assay is carried out in a final volume of 50 μl; all the reagents are prepared in a buffer: • 25 mM HEPES/NaOH pH 7.6 • 5 mM MgCl2 • 2 mM MnCl2 • 50 μM Na2VO4 5 μl of the 10-times concentrated inhibitor are added to 25 μl of enzyme (12 U/ml final concentration), (Upstate Biotechnology ref 14-117). After incubation for 5 minutes at ambient temperature, 10 μl of PolyGluTyr 4/1 (150 ng/ml final concentration) and 10 μl of ATP (5 μM final concentration) are added. The detection is carried out after incubation for 20 minutes at ambient temperature. • Results obtained expressed as percentage inhibition at 20 μM • Example 8 98% • Example 15 99% • Example 20 99% • Example 24 99% • Example 27 95% • Example 30 99% • Example 32 100% • Example 38 95% 3) Assay for Inhibition of CDK2 Activity

T3 sequence (P12931 whole entry): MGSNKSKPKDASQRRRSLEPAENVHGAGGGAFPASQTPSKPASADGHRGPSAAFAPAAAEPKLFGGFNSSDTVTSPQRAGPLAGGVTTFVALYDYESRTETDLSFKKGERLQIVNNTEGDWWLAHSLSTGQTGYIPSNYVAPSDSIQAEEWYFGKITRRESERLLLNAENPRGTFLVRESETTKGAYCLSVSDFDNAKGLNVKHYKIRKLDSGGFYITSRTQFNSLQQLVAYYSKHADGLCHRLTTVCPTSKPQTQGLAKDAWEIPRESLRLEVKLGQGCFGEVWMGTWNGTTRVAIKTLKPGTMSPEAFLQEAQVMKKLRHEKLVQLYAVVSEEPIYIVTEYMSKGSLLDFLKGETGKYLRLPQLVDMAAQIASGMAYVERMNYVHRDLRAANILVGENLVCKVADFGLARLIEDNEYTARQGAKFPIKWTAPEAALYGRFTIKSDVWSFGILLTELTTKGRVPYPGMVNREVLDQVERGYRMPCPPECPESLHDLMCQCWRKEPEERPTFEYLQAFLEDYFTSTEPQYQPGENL
CaCiv1, sequence (A0A1D8PH53 entry or part of it): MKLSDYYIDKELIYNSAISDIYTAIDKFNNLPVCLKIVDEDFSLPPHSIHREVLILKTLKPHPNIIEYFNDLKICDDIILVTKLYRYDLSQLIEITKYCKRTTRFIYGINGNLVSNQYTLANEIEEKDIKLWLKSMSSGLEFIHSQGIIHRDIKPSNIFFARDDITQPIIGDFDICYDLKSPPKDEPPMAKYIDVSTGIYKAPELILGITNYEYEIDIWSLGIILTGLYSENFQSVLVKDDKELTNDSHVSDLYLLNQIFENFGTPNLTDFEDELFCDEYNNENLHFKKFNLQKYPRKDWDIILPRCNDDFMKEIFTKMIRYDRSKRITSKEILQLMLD
FAK, sequence (Q05397 whole entry, species assumed): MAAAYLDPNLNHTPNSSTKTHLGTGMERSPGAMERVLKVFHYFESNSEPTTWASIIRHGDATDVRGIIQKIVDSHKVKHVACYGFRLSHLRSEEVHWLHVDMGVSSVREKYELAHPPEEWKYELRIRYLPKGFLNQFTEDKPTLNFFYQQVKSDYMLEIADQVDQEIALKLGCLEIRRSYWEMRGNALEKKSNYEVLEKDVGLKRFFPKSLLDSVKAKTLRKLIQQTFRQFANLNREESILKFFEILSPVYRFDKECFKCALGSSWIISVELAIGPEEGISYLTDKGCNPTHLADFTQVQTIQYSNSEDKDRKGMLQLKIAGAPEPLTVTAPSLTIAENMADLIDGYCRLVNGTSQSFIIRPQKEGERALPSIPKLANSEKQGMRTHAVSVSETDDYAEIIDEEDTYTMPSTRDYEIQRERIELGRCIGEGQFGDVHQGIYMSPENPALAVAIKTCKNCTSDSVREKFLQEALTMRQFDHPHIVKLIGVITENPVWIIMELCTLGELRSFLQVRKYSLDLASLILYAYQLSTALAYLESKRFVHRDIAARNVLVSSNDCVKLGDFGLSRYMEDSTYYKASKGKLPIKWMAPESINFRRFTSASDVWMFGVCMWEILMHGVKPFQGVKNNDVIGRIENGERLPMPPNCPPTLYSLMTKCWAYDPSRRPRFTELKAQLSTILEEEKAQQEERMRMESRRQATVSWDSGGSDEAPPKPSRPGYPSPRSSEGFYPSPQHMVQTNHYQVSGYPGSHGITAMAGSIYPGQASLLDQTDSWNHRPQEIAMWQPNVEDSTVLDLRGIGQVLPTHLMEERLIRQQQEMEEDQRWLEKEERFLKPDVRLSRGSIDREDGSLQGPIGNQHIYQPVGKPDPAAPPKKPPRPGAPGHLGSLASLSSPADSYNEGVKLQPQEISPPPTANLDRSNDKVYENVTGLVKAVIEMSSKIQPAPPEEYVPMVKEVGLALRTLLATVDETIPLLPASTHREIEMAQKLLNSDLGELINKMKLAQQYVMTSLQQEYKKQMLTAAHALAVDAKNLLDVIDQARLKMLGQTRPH
T1 sequence (P00533 25-1210): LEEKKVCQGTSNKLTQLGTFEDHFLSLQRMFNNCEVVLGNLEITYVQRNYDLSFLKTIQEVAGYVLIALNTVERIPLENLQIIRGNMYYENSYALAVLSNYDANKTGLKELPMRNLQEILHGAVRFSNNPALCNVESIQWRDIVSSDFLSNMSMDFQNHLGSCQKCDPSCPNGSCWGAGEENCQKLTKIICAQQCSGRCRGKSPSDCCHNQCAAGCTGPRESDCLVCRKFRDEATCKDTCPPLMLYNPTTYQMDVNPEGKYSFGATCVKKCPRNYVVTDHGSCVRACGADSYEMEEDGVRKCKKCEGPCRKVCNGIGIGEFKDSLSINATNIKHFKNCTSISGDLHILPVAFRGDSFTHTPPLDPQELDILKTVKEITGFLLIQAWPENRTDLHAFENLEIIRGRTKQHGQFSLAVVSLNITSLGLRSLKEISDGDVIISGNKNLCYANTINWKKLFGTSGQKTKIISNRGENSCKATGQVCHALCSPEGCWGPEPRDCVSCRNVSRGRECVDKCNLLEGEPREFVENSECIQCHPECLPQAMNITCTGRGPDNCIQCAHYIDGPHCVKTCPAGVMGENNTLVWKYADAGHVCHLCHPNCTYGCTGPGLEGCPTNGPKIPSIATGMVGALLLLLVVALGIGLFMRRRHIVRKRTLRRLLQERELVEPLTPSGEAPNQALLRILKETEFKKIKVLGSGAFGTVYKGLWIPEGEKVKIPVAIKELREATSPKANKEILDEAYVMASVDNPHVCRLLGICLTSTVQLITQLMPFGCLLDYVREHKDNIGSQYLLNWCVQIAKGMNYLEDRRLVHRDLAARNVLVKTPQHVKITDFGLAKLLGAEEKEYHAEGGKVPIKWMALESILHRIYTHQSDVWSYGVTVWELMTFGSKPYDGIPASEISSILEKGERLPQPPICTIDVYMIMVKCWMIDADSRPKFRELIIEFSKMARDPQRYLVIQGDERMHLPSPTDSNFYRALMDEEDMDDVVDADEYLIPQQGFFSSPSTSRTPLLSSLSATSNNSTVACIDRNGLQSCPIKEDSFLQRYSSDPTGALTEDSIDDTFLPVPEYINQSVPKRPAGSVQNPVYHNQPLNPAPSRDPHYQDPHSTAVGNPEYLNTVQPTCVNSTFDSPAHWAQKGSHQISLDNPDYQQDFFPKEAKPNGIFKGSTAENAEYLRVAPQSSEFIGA

SMILES: N[C@H]1CC[C@H](Nc2nc(-n3cnc4cc(OCc5ccccc5)ccc43)c3nc[nH]c3n2)CC1 [Example 20, Trans-N-[6-[5-(phenylmethoxy)-1H-benzimidazol-1-yl]-9H-purin-2-yl]-1,4-cyclohexanediamine]
- inhibition at 20 µM (EGF tyr Kinase): 100%
- MIC (Candida albicans): 32 µg/mL (≈ 70.4 µM)
- MIC (Candida glabrata): 16 µg/mL (≈ 35.2 µM)
- MIC Aspergillus fumigatus (Aspergillus fumigatus): 32 µg/mL (≈ 70.4 µM)
- pIC50 (FAK): 5.80
- pIC50 (CaCiv1): 5.77
- inhibition at 20 µM (ZAP kinase): 95%
- inhibition at 20 µM (SRC kinase): 99%
